Reference: article PMC5119973 (Cancer Medicine, 2016)
“And” between values parts separate entries of the source, which are not always exact repeats. Equal entries are not always repeated.

How the values were obtained:
TAK1 = biological target: T1, TAK1 (Homo sapiens, UniProt O43318); experiment: KINOMEscan active-site competitive binding assay; conditions: slash = two separate measurements
T1 construct: purchased DiscoveRx
T1 sequence (O43318 1-606): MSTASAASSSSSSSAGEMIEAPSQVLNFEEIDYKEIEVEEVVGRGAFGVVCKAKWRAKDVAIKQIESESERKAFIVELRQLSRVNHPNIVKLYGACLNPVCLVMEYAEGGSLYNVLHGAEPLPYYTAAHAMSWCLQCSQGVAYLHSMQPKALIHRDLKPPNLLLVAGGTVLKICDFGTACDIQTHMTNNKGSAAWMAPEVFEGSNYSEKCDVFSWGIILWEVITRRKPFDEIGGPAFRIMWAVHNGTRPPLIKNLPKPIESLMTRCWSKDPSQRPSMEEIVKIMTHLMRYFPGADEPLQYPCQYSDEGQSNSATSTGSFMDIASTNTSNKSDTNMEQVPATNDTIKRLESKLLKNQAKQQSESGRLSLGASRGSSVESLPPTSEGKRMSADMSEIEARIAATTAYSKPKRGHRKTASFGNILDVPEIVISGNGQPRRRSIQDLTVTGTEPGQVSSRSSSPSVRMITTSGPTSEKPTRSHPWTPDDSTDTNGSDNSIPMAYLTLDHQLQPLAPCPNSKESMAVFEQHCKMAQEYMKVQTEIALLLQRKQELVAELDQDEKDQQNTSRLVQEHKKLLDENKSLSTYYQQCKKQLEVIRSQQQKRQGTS

[1] = Plasma protein binding in vitro (Transil), mouse plasma; format: in vitro ADME
Description: A radioactivity analysis was performed by liquid scintillation counting. […] All compounds were tested for stability at the incubation conditions used.

TNNI3K = biological target: T2, TNNI3K (Homo sapiens, UniProt Q59H18); experiment: KINOMEscan active-site competitive binding assay; conditions: slash = two separate measurements
T2 construct: purchased DiscoveRx
T2 sequence (Q59H18 1-835): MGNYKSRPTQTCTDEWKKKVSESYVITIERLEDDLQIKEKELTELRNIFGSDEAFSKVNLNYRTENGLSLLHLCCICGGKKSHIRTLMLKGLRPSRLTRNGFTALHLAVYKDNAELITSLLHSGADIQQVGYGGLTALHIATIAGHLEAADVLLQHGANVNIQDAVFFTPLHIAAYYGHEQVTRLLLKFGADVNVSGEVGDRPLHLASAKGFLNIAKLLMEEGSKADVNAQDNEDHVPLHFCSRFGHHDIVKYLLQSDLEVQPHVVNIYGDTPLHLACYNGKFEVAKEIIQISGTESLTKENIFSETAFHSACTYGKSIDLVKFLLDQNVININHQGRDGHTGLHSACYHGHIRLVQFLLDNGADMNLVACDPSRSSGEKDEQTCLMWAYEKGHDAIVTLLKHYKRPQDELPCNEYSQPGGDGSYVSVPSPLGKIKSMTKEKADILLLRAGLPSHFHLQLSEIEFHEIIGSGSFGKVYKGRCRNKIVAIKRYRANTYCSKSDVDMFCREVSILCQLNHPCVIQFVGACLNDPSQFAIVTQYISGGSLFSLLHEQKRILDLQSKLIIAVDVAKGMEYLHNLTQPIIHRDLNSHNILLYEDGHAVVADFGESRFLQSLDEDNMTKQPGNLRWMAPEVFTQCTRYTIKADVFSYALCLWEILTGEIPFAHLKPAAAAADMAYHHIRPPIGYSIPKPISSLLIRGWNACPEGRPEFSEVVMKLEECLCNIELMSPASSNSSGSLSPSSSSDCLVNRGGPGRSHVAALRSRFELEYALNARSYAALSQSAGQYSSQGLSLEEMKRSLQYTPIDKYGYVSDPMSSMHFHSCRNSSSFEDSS

p38-alpha = biological target: T3, p38-alpha (Homo sapiens, UniProt Q16539); experiment: KINOMEscan active-site competitive binding assay; conditions: slash = two separate measurements
T3 construct: purchased DiscoveRx (KINOMEscan service)

HIPK4 = biological target: T4, HIPK4 (Homo sapiens, UniProt Q8NE63); experiment: KINOMEscan active-site competitive binding assay; conditions: slash = two separate measurements
T4 construct: purchased DiscoveRx (KINOMEscan service)
T4 sequence (Q8NE63 1-616): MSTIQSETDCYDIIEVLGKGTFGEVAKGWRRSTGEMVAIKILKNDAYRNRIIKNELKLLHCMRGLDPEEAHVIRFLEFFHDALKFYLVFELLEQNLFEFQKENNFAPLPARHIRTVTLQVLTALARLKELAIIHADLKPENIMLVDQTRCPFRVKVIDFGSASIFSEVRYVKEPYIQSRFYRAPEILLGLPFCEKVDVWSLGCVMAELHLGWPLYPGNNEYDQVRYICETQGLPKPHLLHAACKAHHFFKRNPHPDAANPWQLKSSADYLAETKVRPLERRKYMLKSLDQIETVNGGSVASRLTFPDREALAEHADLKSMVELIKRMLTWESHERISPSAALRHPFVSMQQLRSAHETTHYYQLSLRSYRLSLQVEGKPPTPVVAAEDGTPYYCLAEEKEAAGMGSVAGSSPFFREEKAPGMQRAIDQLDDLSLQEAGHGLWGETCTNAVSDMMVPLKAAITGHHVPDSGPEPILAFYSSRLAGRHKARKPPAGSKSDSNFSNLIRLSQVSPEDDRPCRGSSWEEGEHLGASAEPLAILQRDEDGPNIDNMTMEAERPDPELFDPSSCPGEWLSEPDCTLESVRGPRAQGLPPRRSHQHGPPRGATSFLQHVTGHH

[2] = tested on: lung tumor cell lines expressing wt or mutant DDR2; experiment: Preliminary in vitro proliferation, lung tumor cell lines expressing wt or mutant DDR2; format: cell-based; conditions: unpubl. data
FRK = biological target: T5, FRK (Homo sapiens, UniProt P42685); experiment: KINOMEscan active-site competitive binding assay; conditions: slash = two separate measurements
T5 construct: purchased DiscoveRx (KINOMEscan service)

[3] = mouse (CD‐1), male, plasma, arithmetic mean ± SD

T5 sequence (P42685 whole entry): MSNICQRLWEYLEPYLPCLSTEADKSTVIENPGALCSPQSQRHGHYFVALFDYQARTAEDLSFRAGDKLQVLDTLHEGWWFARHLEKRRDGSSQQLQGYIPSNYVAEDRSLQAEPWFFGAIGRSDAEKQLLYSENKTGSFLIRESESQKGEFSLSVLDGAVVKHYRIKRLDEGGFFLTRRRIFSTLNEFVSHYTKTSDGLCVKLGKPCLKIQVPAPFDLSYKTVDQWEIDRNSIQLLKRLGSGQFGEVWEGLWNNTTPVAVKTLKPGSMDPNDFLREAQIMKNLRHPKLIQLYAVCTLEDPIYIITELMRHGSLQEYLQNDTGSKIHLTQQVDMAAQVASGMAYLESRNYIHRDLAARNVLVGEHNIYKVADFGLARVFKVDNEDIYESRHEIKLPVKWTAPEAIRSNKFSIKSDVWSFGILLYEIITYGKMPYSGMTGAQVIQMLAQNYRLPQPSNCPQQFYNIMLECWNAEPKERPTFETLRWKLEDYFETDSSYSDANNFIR
T3 sequence (Q16539 whole entry): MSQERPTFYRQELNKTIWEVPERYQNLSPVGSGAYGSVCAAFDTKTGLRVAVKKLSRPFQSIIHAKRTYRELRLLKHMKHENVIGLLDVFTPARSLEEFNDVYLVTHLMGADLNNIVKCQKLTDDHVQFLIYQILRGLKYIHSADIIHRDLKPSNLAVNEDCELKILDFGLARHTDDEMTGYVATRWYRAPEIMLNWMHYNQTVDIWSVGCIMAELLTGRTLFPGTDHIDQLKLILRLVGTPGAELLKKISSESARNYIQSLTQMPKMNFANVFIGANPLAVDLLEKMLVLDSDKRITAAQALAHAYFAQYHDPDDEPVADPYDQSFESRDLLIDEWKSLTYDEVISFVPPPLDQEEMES

| Compound | Kd (TAK1) | Unbound fraction (%) [1, 3] | Proportion of protein‐bound drug ([1]; murine plasma) | Unbound fraction, fold higher than that of regorafenib ([1]; murine plasma) | Kd (TNNI3K) | Kd (p38-alpha) | Kd (HIPK4) | Inhibition of proliferation [2] | Kd (FRK) | fraction unbound ([1]; male, CD-1, mouse, plasma, mouse (CD‐1), arithmetic mean ± SD) |
| --- | --- | --- | --- | --- | --- | --- | --- | --- | --- | --- |
| CNC(=O)c1cc(Oc2ccc(NC(=O)Nc3ccc(Cl)c(C(F)(F)F)c3)c(F)c2)cc[n+]1[O-] [M‐2] | 79 nM | 0.888 ± 0.033% | more than 99% | approximately 1.5 fold | 160 nM | 17 nM | 15 nM | only moderate inhibition | 42 nM |  |
| NC(=O)c1cc(Oc2ccc(NC(=O)Nc3ccc(Cl)c(C(F)(F)F)c3)c(F)c2)cc[n+]1[O-] [M‐5] | 120 nM | 0.412 ± 0.041% | more than 99% |  | 77 nM | 48 nM | 26 nM | only moderate inhibition | 24 nM |  |
| CNC(=O)c1cc(Oc2ccc(NC(=O)Nc3ccc(Cl)c(C(F)(F)F)c3)c(F)c2)ccn1 [Regorafenib, reference compound] | 170 nM and 260 nM | 0.575 ± 0.039% | more than 99% |  | 170 nM and 110 nM | 58 nM and 48 nM | 6.9 nM and 4.5 nM | only moderate inhibition | 69 nM and 42 nM | ~0.006 |
